Data published in ChEMBL document CHEMBL2311474, “Chiral 6,7-bis(hydroxymethyl)-1H,3H-pyrrolo[1,2-c]thiazoles with anti-breast cancer properties” (Eur J Med Chem, 2013).

What was measured:
[1] = Cytotoxicity against human HFF1 cells after 96 hrs by MTT assay; type: cell-based; conditions: HFF-1, 96 h
[2] = system: MCF7; experiment: Cytotoxicity against human MCF7 cells after 48 hrs by MTT assay; type: functional, cell-based; conditions: MCF7, 48 h
[3] = system: MCF7; experiment: Cytotoxicity against human MCF7 cells after 96 hrs by MTT assay; type: functional, cell-based; conditions: MCF7, 96 h
[4] = system: MCF7; experiment: Cytotoxicity against human MCF7 cells after 24 hrs by MTT assay; type: functional, cell-based; conditions: MCF7, 24 h
[5] = system: MCF7; experiment: Cytotoxicity against human MCF7 cells after 72 hrs by MTT assay; type: functional, cell-based; conditions: MCF7, 72 h

SMILES	IC50 [1] [µM]	IC50 [2] [µM]	IC50 [3] [µM]	IC50 [4] [µM]	IC50 [5] [µM]
Cc1c(CO)cc2n1[C@@H](c1ccccc1)SC2	154				
Cc1cc(CO)c2n1[C@@H](c1ccccc1)SC2	104				
Cc1c(COC(=O)NCc2ccccc2)cc2n1[C@@H](c1ccccc1)SC2	48.2				
OCc1c(CO)c(-c2ccccc2)n2c1CS[C@@H]2c1ccccc1		61.8	70.2	92.6	52.1
OCc1c(CO)c(-c2ccc(F)cc2)n2c1CS[C@@H]2c1ccccc1		46.3	26.4	56.7	44.6
Cc1c(CO)c(CO)c2n1[C@H](c1ccccc1)SC2		0.54	0.3	1.75	0.54
Cc1c(CO)cc2n1CSC2		156	82.3	186	192
Cc1cc(CO)c2n1CSC2		54.7	44.6	75.9	40.9
Cc1c(CO)c(CO)c2n1CSC2		38.1	21.5	37.8	22.6
COc1cc([C@H]2SCc3c(CO)c(CO)c(C)n32)cc(OC)c1OC		127	59.9	> 200	54.5
OCc1cn2c(c1CO)CS[C@@H]2c1ccccc1		19.4		70.8	
OCc1cn2c(c1CO)CS[C@@H]2c1cccnc1		128	30.6	> 200	61.7
